# Test results reported in publication PMC8869400, “Inhibition Mechanism of Components Isolated from Morus alba Branches on Diabetes and Diabetic Complications via Experimental and Molecular Docking Analyses” (Antioxidants, 2022).
# Like-named read-outs stand apart in the source and are kept apart here.
# Assays:
# [1] = target: T1, PTP1B (Homo sapiens, UniProt P18031); test: In vitro assay for PTP1B inhibitory activity (pNPP); assay type: biochemical
# T1 construct: purchased Enzo Life Sciences
# T1 sequence (P18031 1-435): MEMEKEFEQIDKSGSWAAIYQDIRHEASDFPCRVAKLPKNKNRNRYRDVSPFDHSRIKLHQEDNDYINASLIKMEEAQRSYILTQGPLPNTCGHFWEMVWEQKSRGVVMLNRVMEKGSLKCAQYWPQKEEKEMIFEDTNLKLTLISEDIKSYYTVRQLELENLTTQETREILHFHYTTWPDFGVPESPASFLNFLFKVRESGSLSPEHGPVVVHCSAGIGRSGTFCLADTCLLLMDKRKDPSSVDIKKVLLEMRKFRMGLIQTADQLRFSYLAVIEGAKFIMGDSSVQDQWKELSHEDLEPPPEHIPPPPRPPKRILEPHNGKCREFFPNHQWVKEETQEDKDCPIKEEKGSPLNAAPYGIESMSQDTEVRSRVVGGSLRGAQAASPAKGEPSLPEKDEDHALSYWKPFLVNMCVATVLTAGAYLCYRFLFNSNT
# [2] = system: AGE formation; test: In vitro assay for inhibition of AGE formation (BSA-fructose/glucose fluorescence); assay type: biochemical; details: for IC50: read-out: AGEs IC50
# Description: The inhibition of AGE formation was evaluated using a modification of a previously published method. To prepare the reaction solution, 10 mg/mL of bovine serum albumin was added to 0.2 M fructose, 0.2 M glucose, and […] sodium azide. The reaction solution was mixed with various concentrations of the samples dissolved in 10% DMSO until the total volume was 1 mL. After an 8-day incubation at 37 °C, the fluorescence intensity of the reaction products was measured using a VERSA MAX GEMINI XPS fluorescence microplate reader (Molecular Devices) with excitation and emission wavelengths of 350 nm and 450 nm, respectively. After obtaining the results, we determined the IC50 values as the result on day 4. Aminoguanidine hydrochloride was used as the positive control.
# [3] = In vitro assay for peroxynitrite scavenging activity (DHR 123); details: mean ± SD of triplicate experiments; for IC50: read-out: ONOO− IC50
# Description: The ONOO^− scavenging activity assay was conducted using a previously published method that involved measuring highly fluorescent rhodamine 123, which is rapidly converted from non-fluorescent DHR 123 in the presence of ONOO^−. Briefly, the rhodamine buffer (pH 7.4) was composed of 100 μM DTPA and 5 μM DHR 123. The assay buffer was prepared prior to use and placed on ice. The fluorescence intensity of the oxidized DHR 123 in the background and sample was measured 30 s after treatment with (and without) 200 μM authentic ONOO^−. The fluorescence intensity of the oxidized DHR 123 was measured using a VERSA MAX GEMINI XPS fluorescence microplate reader (Molecular Devices., CA, USA) at excitation and emission wavelengths of 485 and 530 nm, respectively. L-Penicillamine was used as the positive control.
# [4] = target: T2, α-glucosidase (Saccharomyces cerevisiae, UniProt P53341); test: Kinetic study for α-glucosidase inhibition (Lineweaver–Burk and Dixon plots); assay type: biochemical; details: for α-Glucosidase Inhibition Mode: determined using Lineweaver–Burk plots
# T2 construct: purchased Sigma-Aldrich Chemical Company
# T2 sequence (P53341 whole entry): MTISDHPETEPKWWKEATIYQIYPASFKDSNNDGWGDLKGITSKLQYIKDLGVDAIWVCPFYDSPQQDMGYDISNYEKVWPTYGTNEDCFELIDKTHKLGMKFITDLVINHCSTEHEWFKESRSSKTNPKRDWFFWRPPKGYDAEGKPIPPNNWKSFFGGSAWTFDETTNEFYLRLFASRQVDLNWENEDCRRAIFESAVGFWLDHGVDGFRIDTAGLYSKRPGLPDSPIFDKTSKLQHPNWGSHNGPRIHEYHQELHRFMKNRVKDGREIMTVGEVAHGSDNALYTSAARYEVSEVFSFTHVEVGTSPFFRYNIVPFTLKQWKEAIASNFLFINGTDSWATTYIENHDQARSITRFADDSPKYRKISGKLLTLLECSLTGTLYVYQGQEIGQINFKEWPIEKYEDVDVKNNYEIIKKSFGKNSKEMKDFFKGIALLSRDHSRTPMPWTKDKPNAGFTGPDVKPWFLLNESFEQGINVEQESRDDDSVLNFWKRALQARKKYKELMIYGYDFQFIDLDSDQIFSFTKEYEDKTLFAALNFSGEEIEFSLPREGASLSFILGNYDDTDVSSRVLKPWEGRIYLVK
# [5] = target: T1, PTP1B; test: Kinetic study for PTP1B inhibition (Lineweaver–Burk and Dixon plots); assay type: biochemical; details: for PTP1B Inhibition Mode: determined using Lineweaver–Burk plots
# [6] = target: T1, PTP1B; details: at 20 μg/mL; ref 43 (Zhao et al.); cited from earlier work
# [7] = mean ± SD of triplicate experiments, read-out: PTP1B IC50
# [8] = mean ± SD of triplicate experiments, result on day 4
# [9] = determined using Dixon plots, read-out: α-Glucosidase Ki
# [10] = determined using Dixon plots, read-out: PTP1B Ki
SMILES,"IC50 [1, 7] [µM]","IC50 [2, 8] [µM]",IC50 [3] [µM],"Ki [4, 9] [µM]",α-Glucosidase Inhibition Mode [4],further results
"Oc1cc(O)cc(-c2cc3ccc(O)cc3o2)c1 [Moracin M (2), Moracin M]",333 ± 20.5,2.1 ± 0.22,1.08 ± 0.04,3.32,Mixed,–
"O=C1c2c(O)cc(O)cc2O[C@H](c2ccc(O)cc2O)[C@H]1O [Dihydromorin (3), Dihydromorin]",180,118 ± 7.89,2.26 ± 0.12,10.2,Mixed,–
"CC(C)=CCc1c(-c2ccc(O)cc2O)oc2c(C3C=C(C)CC(c4ccc(O)cc4O)C3C(=O)c3ccc(O)cc3O)c(O)cc(O)c2c1=O (stereo not drawn) [Kuwanon G (7), Kuwanon G]",16.2 ± 0.29,69.1 ± 1.49,6.35 ± 0.36,–,Mixed,"Ki [4]: 2.03 µM; Ki [5, 10]: 12.4 µM; PTP1B Inhibition Mode [5]: Mixed; PTP1B Inhibition Mode ([5]; listed as kuwanon G (7)): mixed-type"
"O=c1cc(-c2ccc(O)cc2O)oc2cc(O)cc(O)c12 [Norartocarpetin (6), Norartocarpetin]",> 100,77.3 ± 9.58,3.01 ± 0.15,19.9,Mixed,"PTP1B-inhibitory activity ([1]; at 100 μg/mL): no PTP1B-inhibitory activity; IC50 ([1]; mean ± SD of triplicate experiments, read-out: IC50 Values PTP1B): > 349 µM; PTP1B inhibition [6]: 20%"
"CC(C)(S)[C@H](N)C(=O)O [L-Penicillamine, reference compound]",–,–,6.69 ± 0.52,–,–,IC50 Values ONOO− [3]: 1.37 ± 0.19 µg/mL
"Cl.N=C(N)NN [Aminoguanidine, Aminoguanidine hydrochloride, reference compound]",–,890 ± 70.2,–,–,–,"IC50 Values AGEs [2, 8]: 52.62 ± 6.70 µg/mL"
"Oc1cc(O)cc(/C=C/c2ccc(O)cc2O)c1 [Oxyresveratrol (5), Oxyresveratrol]",–,7.56 ± 0.15,2.37 ± 0.21,–,Mixed,"IC50 ([1]; PTP1B IC50, mean ± SD of triplicate experiments): 2.85 ± 0.3 µM; Ki [4]: 1.14 µM; Ki [5]: 2.16 µM"
"CC(C)=CCc1c(-c2ccc(O)cc2O)oc2c(CC=C(C)C)c(O)cc(O)c2c1=O [Kuwanon C (1), Kuwanon C]",41.4 ± 1.64,> 100,12.9 ± 0.68,6.85,Mixed,"inhibitory activity on AGE formation ([2]; at 100 μg/mL): no inhibitory activity on AGE formation; Ki [5, 10]: 39.4 µM; PTP1B Inhibition Mode [5]: Non-competitive; PTP1B inhibition [6]: 58%"
